Experimental data as given in patent publication US4772618A, “Benzamides” (priority 1985, dated 1988).
Where two headings read alike, the source gives them in different places.

Legend:
[1] = biological target: T1, central and peripheral D2 (DA2)--dopamine receptors (Canis lupus familiaris, UniProt Q9GJU1); assay: Apomorphine-induced emesis in the dog, intravenous route; assay type: in vivo
T1 construct: Apomorphine-induced emesis in the dog, administering compounds via the intravenous route; from tissue; host or cells: whole living dog (in vivo, intravenous dosing)
T1 sequence (Q9GJU1 whole entry): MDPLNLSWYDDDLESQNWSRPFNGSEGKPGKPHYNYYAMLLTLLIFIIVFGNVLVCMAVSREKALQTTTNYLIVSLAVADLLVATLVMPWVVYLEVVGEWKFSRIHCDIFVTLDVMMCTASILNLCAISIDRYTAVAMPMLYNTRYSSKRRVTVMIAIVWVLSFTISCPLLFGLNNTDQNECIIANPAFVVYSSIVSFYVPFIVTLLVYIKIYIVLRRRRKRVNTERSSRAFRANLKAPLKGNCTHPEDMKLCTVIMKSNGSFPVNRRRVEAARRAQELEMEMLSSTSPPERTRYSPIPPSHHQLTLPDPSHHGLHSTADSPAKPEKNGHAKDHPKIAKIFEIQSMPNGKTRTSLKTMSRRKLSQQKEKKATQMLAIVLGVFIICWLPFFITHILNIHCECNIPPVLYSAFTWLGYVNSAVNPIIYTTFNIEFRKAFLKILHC
Experimental: The pharmacological screening for undesirable effects upon central and peripheral D2 (DA2)--dopamine receptors was carried out using the following tests: 3. […] (see […]., High, […]., Burke, J. C. and […]. Exp. Therap., 127, 55-65, 1959).

[2] = test system: dopamine receptors in the striatum and hypophysis; settings: cited from earlier work
[3] = test system: stomach emptying; assay: Stomach emptying in the rat (stomach emptying index, glass beads), oral route; assay type: in vivo; parameters: key: index computed from beads emptied by treated (nx) vs control (nc) rats
Experimental: Stomach emptying in the rat, administering compounds via the oral (0.1-1 mg/Kg) and intraperitoneal routes (1-10 mg/Kg), (see Jacoby, H. I. and Brodie, D. A., Gastroenterol. 52, 676-684, 1967).
A stomach emptying index was calculated as follows:
40 Glass beads (diam.perspectiveto.1 mm) administered to each rat after dosing with the test compounds at 0.1, 0.3 and 1 mg/Kg p.o. Results calculated according to the formulae: [formula] where: nc =the number of beads empited by control animals.
nx =the number of beads emptied by treated animals.
SEI=Stomach emptying index [formula]

[4] = biological target: T2, central and peripheral D2 (DA2)--dopamine receptors (Rattus norvegicus, UniProt P61169); assay: Apomorphine-induced stereotyped behaviour in the rat, intraperitoneal route; assay type: in vivo
T2 construct: Apomorphine-induced stereotyped behaviour in the rat, administering compounds via the intraperitoneal route; from tissue; host or cells: whole living rat (in vivo, intraperitoneal dosing)
T2 sequence (P61169 whole entry): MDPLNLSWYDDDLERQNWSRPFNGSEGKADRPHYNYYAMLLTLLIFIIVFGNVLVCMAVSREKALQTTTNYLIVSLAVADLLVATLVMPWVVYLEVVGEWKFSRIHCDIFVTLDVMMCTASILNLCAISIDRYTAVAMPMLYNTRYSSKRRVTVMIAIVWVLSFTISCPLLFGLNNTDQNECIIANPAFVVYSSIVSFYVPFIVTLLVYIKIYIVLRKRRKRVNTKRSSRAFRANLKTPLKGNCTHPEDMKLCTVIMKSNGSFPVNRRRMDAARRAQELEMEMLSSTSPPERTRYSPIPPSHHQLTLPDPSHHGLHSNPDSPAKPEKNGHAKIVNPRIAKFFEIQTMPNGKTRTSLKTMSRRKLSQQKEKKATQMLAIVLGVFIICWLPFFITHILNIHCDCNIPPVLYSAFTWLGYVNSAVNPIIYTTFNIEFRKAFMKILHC
Experimental: The pharmacological screening for undesirable effects upon central and peripheral D2 (DA2)--dopamine receptors was carried out using the following tests:
2. […]. (see Janssen, P. A. J., Niemegeers, C. J. E. and Jageneau, A. H. Arzneim. Forsch. 10, 1003-1005, 1960).

[5] = Table 2 (with aromatic compounds)
[6] = Table 1, 0.1, 0.3 and 1 mg/Kg p.o.
[7] = Table 2 (with aromatic compounds), 0.1, 0.3 and 1 mg/Kg p.o.
[8] = Table 2 (with aromatic compounds), ip

| SMILES | Antidopaminergic activity: dog emesis screen, ID50 ([1]; Table 1) [mg/kg] | Antidopaminergic activity: dog emesis screen, ID50 [1, 5] [mg/kg] | side effects associated with dopamine receptor blockade in some patients ([2]; in words, some patients) | Stomach emptying index in the rat via oral route [3, 6] | Stomach emptying index in the rat via oral route [3, 7] | Antidopaminergic activity: rat stereotype behaviour induced by apomorphine, ID50 ([4]; Table 1, ip) [mg/kg] | Antidopaminergic activity: rat stereotype behaviour induced by apomorphine, ID50 [4, 8] [mg/kg] | side effects associated with dopamine receptor blockade in some patients ([2]; human, in vivo) |
| --- | --- | --- | --- | --- | --- | --- | --- | --- |
| COc1cc(N)c(Cl)cc1C(=O)NC1CCN(Cc2ccccc2)CC1 [CLEBOPRIDE, N(1benzylpiperid-4-yl)-2-methoxy-4-amino-5-chlorobenzamide, reference compound] | 0.0096 | 0.0096 | extrapyramidal symptoms and hyperprolactinemia related side effects in some patients | 50.0 | 50.0 | 0.3 | 0.3 | – |
| CCCOc1cc(N)c(Cl)cc1C(=O)NC1CCN(CCCC2CCCO2)CC1 (centres unmarked) [COMPOUND 39] | > 1 | – | – | 45.8 | – | > 30.0 | – | – |
| CCCCOc1cc(N)c(Cl)cc1C(=O)NC1CCN(CC2CCCCO2)CC1 (centres unmarked) [COMPOUND 57] | > 1 | – | – | 51.0 | – | > 30.0 | – | – |
| CCCCOc1cc(N)c(Cl)cc1C(=O)NC1CCN(CC2OCCO2)CC1 [COMPOUND 66, N-[1-[2-(1,3-dioxolanyl)methyl]piperid-4-yl]-2-butoxy-4-amino-5-chlorobenzamide] | > 1 | – | – | 53.7 | – | > 30.0 | – | – |
| CCCCOc1cc(N)c(Cl)cc1C(=O)NC1CCN(CC2OC(C)(C)C(C)(C)O2)CC1 [COMPOUND 91] | > 1 | – | – | 54.9 | – | > 30.0 | – | – |
| CCCCOc1cc(N)c(Cl)cc1C(=O)NC1CCN(CC2OC3CCCCC3O2)CC1 (centres unmarked) [COMPOUND 95] | > 1 | – | – | 49.0 | – | > 30.0 | – | – |
| COc1cc(N)c(Cl)cc1C(=O)NC1CCN(CC2COCO2)CC1 (centres unmarked) [COMPOUND 98] | > 1 | – | – | 60.1 | – | > 30.0 | – | – |
| CCCOc1cc(N)c(Cl)cc1C(=O)NC1CCN(CC2OCCCO2)CC1 [COMPOUND 108] | > 1 | – | – | 51.0 | – | > 30.0 | – | – |
| CCCCOc1cc(N)c(Cl)cc1C(=O)NC1CCN(CC2OCCCO2)CC1 [COMPOUND 109] | > 1 | – | – | 61.3 | – | > 30.0 | – | – |
| CCCCOc1cc(N)c(Cl)cc1C(=O)NC1CCN(CC2OCCCCO2)CC1 [COMPOUND 116] | > 1 | – | – | 56.2 | – | > 30.0 | – | – |
| COc1cc(N)c(Cl)cc1C(=O)NC1CCN(Cc2cccs2)CC1 [COMPOUND A, reference compound] | – | 0.01 to 0.03 | – | – | 40.3 | – | 3 to 10 | – |
| COc1cc(N)c([N+](=O)[O-])cc1C(=O)NC1CCN(Cc2cccs2)CC1 [COMPOUND B, reference compound] | – | 0.03 to 0.1 | – | – | 17.7 | – | 10 to 30 | – |
| COc1cc(N)c(Cl)cc1C(=O)NC1CCN(Cc2ccccn2)CC1 [COMPOUND C, reference compound] | – | 0.03 to 0.1 | – | – | 25.0 | – | 10 to 30 | – |
| COc1cc(N)c(Cl)cc1C(=O)NC1CCN(Cc2ccco2)CC1 [COMPOUND D, reference compound] | – | 0.01 to 0.03 | – | – | 19.3 | – | 3 to 10 | – |
| CCN(CC)CCNC(=O)c1cc(Cl)c(N)cc1OC [METOCLOPRAMIDE, reference compound] | 0.0767 | 0.0767 | – | 24.7 | 24.7 | 5.4 | 5.4 | extrapyramidal symptoms and hyperprolactinemia related side effects in some patients |
